Tests used:
[1] = target: T1, Cholecystokinin receptor type A (Homo sapiens, UniProt P32238); assay: Displacement of [3H]L-364718 from human recombinant CCK1 receptor expressed in CHOK1 cells; type: cell-based, CHO-K1
T1 sequence (P32238 whole entry): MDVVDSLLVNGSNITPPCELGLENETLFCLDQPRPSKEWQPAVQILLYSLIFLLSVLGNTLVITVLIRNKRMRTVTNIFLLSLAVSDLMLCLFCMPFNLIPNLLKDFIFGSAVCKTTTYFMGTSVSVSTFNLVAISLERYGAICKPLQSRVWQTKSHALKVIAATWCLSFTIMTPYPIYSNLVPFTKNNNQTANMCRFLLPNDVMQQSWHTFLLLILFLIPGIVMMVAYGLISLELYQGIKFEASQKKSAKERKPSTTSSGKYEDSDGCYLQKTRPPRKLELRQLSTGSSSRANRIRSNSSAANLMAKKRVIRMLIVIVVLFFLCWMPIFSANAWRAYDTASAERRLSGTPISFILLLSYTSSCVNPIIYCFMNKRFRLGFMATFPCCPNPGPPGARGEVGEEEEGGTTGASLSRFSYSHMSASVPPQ

[2] = Cmax in po dosed dog; type: ADME, organism-based, Canis lupus familiaris; set-up: route oral; conditions: in vivo
[3] = Plasma clearance in dog at 2.5 mg/kg, iv; type: ADME, organism-based, Canis lupus familiaris; set-up: dose 2.5 mg/kg, route intravenous
[4] = target: T2, Gastrin/cholecystokinin type B receptor (Rattus norvegicus, UniProt P30553); assay: Antagonist activity at CCK2 receptor in perfused rat stomach assessed as inhibition of pentagastrin-stimulated gastric acid secretion; type: functional, tissue-based; conditions: read-out: pA2 (converted)
T2 sequence (P30553 whole entry): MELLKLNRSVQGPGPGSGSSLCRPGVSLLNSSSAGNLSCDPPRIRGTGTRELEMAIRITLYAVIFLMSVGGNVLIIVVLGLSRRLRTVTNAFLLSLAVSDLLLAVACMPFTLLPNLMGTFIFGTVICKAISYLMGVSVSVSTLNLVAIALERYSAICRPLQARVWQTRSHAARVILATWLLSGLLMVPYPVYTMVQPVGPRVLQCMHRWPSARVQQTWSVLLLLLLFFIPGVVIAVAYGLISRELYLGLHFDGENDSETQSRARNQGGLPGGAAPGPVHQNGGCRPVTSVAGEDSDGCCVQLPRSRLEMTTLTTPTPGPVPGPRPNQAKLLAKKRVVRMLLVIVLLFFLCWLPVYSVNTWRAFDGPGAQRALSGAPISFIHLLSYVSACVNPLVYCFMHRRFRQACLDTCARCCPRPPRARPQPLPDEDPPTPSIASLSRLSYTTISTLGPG

[5] = target: T3, Gastrin/cholecystokinin type B receptor (Homo sapiens, UniProt P32239); assay: Displacement of [125I]BH-CCK-8S from human recombinant CCK2 receptor expressed in NIH3T3 cells
T3 sequence (P32239 whole entry): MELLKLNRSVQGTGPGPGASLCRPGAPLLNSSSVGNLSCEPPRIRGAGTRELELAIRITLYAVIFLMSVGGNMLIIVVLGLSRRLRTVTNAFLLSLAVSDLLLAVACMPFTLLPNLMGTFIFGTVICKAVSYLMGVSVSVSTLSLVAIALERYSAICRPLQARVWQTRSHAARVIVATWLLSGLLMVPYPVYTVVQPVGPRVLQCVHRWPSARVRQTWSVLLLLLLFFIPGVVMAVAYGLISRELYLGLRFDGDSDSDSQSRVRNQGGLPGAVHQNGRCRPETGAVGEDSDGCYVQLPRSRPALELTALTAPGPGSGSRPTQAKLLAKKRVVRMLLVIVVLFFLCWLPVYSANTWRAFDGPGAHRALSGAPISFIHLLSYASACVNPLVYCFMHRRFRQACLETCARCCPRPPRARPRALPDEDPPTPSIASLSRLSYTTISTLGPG

[6] = target: T4, Gastrin/cholecystokinin type B receptor (Canis lupus familiaris, UniProt P30552); assay: Displacement of [125I]BH-[…] from CCK2 receptor in canine gastric mucosa; type: tissue-based
T4 sequence (P30552 whole entry): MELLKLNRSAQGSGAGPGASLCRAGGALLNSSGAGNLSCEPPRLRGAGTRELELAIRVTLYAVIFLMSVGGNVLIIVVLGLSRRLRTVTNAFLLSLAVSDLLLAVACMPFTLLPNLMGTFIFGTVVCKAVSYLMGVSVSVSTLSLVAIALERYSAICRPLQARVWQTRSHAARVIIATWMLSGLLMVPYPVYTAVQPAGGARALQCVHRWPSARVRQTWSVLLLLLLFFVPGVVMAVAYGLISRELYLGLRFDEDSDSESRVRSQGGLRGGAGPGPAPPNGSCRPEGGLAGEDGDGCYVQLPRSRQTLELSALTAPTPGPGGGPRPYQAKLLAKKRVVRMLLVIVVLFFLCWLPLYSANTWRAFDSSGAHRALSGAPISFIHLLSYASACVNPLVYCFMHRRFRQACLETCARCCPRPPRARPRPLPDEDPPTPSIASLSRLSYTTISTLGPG

[7] = Half life beta in po dosed dog; type: ADME, organism-based, Canis lupus familiaris; conditions: in vivo, read-out: beta t1/2 (converted)
[8] = Bioavailability in po dosed dog; type: ADME, organism-based, Canis lupus familiaris; conditions: in vivo
[9] = Volume of distribution at steady state in dog at 2.5 mg/kg, iv; type: ADME, organism-based, Canis lupus familiaris; set-up: dose 2.5 mg/kg, route intravenous; conditions: in vivo, read-out: Vdss
[10] = target: T1, Cholecystokinin receptor type A; assay: Displacement of [3H]L-364718 from human recombinant CCK1 receptor expressed in PC3 cells; type: cell-based, PC-3
[11] = target: T5, Gastrin/cholecystokinin type B receptor (Canis lupus familiaris) (UniProt P30552); assay: Inhibition of pentagastrin-stimulated gastric acid secretion in iv dosed conscious gastric fistula dog; type: functional, organism-based; conditions: Stomach
T5 sequence (whole entry): T4 sequence (P30552 whole entry)

[12] = target: T5, Gastrin/cholecystokinin type B receptor (Canis lupus familiaris); assay: Inhibition of pentagastrin-stimulated gastric acid secretion in intragastrically dosed conscious gastric fistula dog; type: functional, organism-based; conditions: Stomach
[13] = target: T3, Gastrin/cholecystokinin type B receptor; assay: Displacement of […] from human recombinant CCK2 receptor expressed in NIH3T3 cells; type: cell-based
[14] = target: T5, Gastrin/cholecystokinin type B receptor (Canis lupus familiaris); assay: Inhibition of pentagastrin-stimulated gastric acid secretion in intraduodenal bolus dosed conscious dual gastric fistula dog; type: functional, organism-based; conditions: Stomach

Structure (SMILES) | Ki [1] [nM] | Kb [4] [nM] | Ki [5] [nM] | Ki [6] [nM] | Ki [10] [nM] | Ki [13] [nM] | also measured
CC(C)(C)C(=O)CN1C(=O)N(CC(=O)Nc2cccc(-c3nc(=O)o[nH]3)c2)N=C(C2CCCCC2)c2ccccc21 | 589 | – | 0.2 | 4.47 | – | – | Activity [12]: Dose-dependent effect
CC(C)CC1=NN(CC(=O)Nc2cccc(C(=O)O)c2)C(=O)N(CC(=O)C(C)(C)C)c2ccccc21 | – | – | – | – | 7080 | 89.1 | –
O=C(CN1N=C(C2CCCCC2)c2ccccc2N(CC(=O)C2CCCC2)C1=O)Nc1cccc(-c2noc(=O)[nH]2)c1 | – | – | – | – | – | – | Activity [14]: Dose-dependent effect; ID50 [12]: 0.016 mg/kg; ID50 [11]: < 0.03 mg/kg

Continued, in another order:

Ki [1] [nM] | Kb [4] [nM] | Ki [5] [nM] | Ki [6] [nM] | Ki [10] [nM] | Ki [13] [nM] | Structure (SMILES) | also measured
468 | 1.82 | 0.107 | 4.47 | – | – | O=C(CN1N=C(C2CCCCC2)c2ccccc2N(CC(=O)C2CCCC2)C1=O)Nc1cccc(-c2nc(=O)o[nH]2)c1 | Cmax [2]: 15 µM; clearance [3]: 3.33 mL/min/kg; half-life [7]: 4.1 h; bioavailability [8]: 41%; Vd [9]: 0.13 L/kg
– | 9.77 | 2.14 | 5.25 | > 10000 | – | CC(C)(C)C(=O)CN1C(=O)N(CC(=O)Nc2cccc(CC(=O)O)c2)N=C(C2CCCCC2)c2ccccc21 | Activity [11]: Dose-dependent effect
3980 | – | – | – | – | 1.2 | CC1(C(=O)CN2C(=O)N(CC(=O)Nc3cccc(C(=O)O)c3)N=C(C3CCCCC3)c3ccccc32)CCCC1 | –

Reference: ChEMBL document CHEMBL1145380, “Optimization of 1,3,4-benzotriazepine-based CCK(2) antagonists to obtain potent, orally active inhibitors of gastrin-mediated gastric acid secretion” (J Med Chem, 2007)
